Measured values taken from US11566007B2, “Ras inhibitors” (Revolution Medicines, Inc., priority 2019, dated 2023).

What follows are compounds tested on NCI-H358 (K-Ras G12C) (assay: CellTiter-Glo cell viability assay, NCI-H358). Details: Homo sapiens, NCI-H358, 120 h, NCI-H358, 5-day treatment; class symbols; read-out: Additional H358 Cell Viability assay data (K-Ras G12C, IC50).
Assay type: cell-based, human
In short: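 Compounds dispensed directly onto seeded K-Ras mutant cells; plates read on day 5 after ~30 min equilibration to room temperature, by CellTiter-Glo luminescence. Signal normalized as (sample/mean DMSO)×100, then fitted to a four-parameter logistic curve.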

| Structure (SMILES) | IC50 |
| --- | --- |
| C=CC(=O)N1CCO[C@H]2CCN(C(=O)N(C)[C@H](C(=O)N[C@H]3Cc4nc(cs4)-c4ccc5c(c4)c(c(-c4cccnc4[C@H](C)OC)n5CC)CC(C)(C)COC(=O)[C@@H]4CCCN(N4)C3=O)C(C)C)C[C@H]21 (atropisomer, axis not shown) [Example A580] | 10 to 100 nM |
| C=CC(=O)NCCN1CCN(C(=O)N(C)[C@H](C(=O)N[C@H]2Cc3nc(cs3)-c3ccc4c(c3)c(c(-c3cccnc3[C@H](C)OC)n4CC)CC(C)(C)COC(=O)[C@@H]3CCCN(N3)C2=O)C(C)C)CC1 (atropisomer, axis not shown) [Example A582] | 10 to 100 nM |
| CCn1c(-c2cccnc2[C@H](C)OC)c2c3cc(ccc31)-c1cccc(c1)C[C@H](NC(=O)[C@@H](CO[C@@H]1CCN(C(=O)C#CC(C)(C)N(C)C)C1)C(C)C)C(=O)N1CCC[C@H](N1)C(=O)OCC(C)(C)C2 (atropisomer, axis not shown) [Example A584] | < 10 nM |
| CCn1c(-c2cccnc2[C@H](C)OC)c2c3cc(ccc31)-c1cc(CF)cc(c1)C[C@H](NC(=O)[C@@H](COC1CN(C(=O)C#CC(C)(C)N(C)C)C1)C(C)C)C(=O)N1CCC[C@H](N1)C(=O)OCC(C)(C)C2 (atropisomer, axis not shown) [Example A587] | < 10 nM |
| CO[C@@H](C)c1ncccc1-c1c2c3cc(ccc3n1CC(F)(F)F)-c1cc(CF)cc(c1)C[C@H](NC(=O)[C@@H](COC1CN(C(=O)C#CC(C)(C)N(C)C)C1)C(C)C)C(=O)N1CCC[C@H](N1)C(=O)OCC(C)(C)C2 (atropisomer, axis not shown) [Example A589] | < 10 nM |
| CO[C@@H](C)c1ncccc1-c1c2c3cc(ccc3n1CC(F)(F)F)-c1nc(ns1)C[C@H](NC(=O)[C@@H](COC1CN(C(=O)C#CC(C)(C)N(C)C)C1)C(C)C)C(=O)N1CCC[C@H](N1)C(=O)OCC(C)(C)C2 (atropisomer, axis not shown) [Example A590, (2R)-2-(((1-(4-(dimethylamino)-4-methylpent-2-ynoyl)azetidin-3-yl)oxy)methyl)-N-((6^3S,4S,Z)-1^2-(2-((S)-1-methoxyethyl)pyridin-3-yl)-10,10-dimethyl-5,7-dioxo-1^1-(2,2,2-trifluoroethyl)-6^1,6^2,6^3,6^4,6^5,6^6-hexahydro-1^1H-8-oxa-2(5,3)-thiadiazola-1(5,3)-indola-6(1,3)-pyridazinacycloundecaphane-4-yl)-3-methylbutanamide] | < 10 nM |
| C=CC(=O)N1CCO[C@@]2(CCN(C(=O)N(C)[C@H](C(=O)N[C@H]3Cc4nc(cs4)-c4ccc5c(c4)c(c(-c4cccnc4[C@H](C)OC)n5CC(F)(F)F)CC(C)(C)COC(=O)[C@@H]4CCCN(N4)C3=O)C(C)C)C2)C1 (atropisomer, axis not shown) [Example A594] | < 10 nM |
| C=CC(=O)N1CCO[C@H]2CN(C(=O)N(C)[C@H](C(=O)N[C@H]3Cc4cccc(n4)-c4ccc5c(c4)c(c(-c4cccnc4[C@H](C)OC)n5CC(F)(F)F)CC(C)(C)COC(=O)[C@@H]4CCCN(N4)C3=O)C(C)C)C[C@H]21 (atropisomer, axis not shown) [Example A595] | < 10 nM |
| C=CC(=O)N1CCO[C@H]2CN(C(=O)N(C)[C@H](C(=O)N[C@H]3Cc4cccc(n4)-c4ccc5c(c4)c(c(-c4cccnc4[C@H](C)OC)n5CC)CC(C)(C)COC(=O)[C@@H]4CCCN(N4)C3=O)C(C)C)C[C@H]21 (atropisomer, axis not shown) [Example A597] | < 10 nM |
| C=CC(=O)N1CCO[C@H]2CN(C(=O)N(C)[C@H](C(=O)N[C@H]3Cc4cccc(c4)-c4ccc5c(c4)c(c(-c4cccnc4[C@H](C)OC)n5CC)CC(C)(C)COC(=O)[C@@H]4CCCN(N4)C3=O)C(C)C)C[C@H]21 (atropisomer, axis not shown) [Example A610] | < 10 nM |
| C=CC(=O)N1CC2(CCN2C(=O)N(C)[C@H](C(=O)N[C@H]2Cc3nc(n(C)n3)-c3ccc4c(c3)c(c(-c3cccnc3[C@H](C)OC)n4CC)CC(C)(C)COC(=O)[C@@H]3CCCN(N3)C2=O)C(C)C)C1 (atropisomer, axis not shown) [Example A612] | 100 to 1000 nM |
| CCn1c(-c2cccnc2[C@H](C)OC)c2c3cc(ccc31)N1CCC[C@@H](C[C@H](NC(=O)[C@H](C(C)C)N(C)C(=O)C3(F)CCN(C(=O)C#CC(C)(C)N(C)C)CC3)C(=O)N3CCC[C@H](N3)C(=O)OCC(C)(C)C2)C1 (atropisomer, axis not shown) [Example A615] | < 10 nM |
| C=CC(=O)N(C)CCC1CCN(C(=O)N(C)[C@H](C(=O)N[C@H]2Cc3nc(cs3)-c3ccc4c(c3)c(c(-c3cccnc3[C@H](C)OC)n4CC)CC(C)(C)COC(=O)[C@@H]3CCCN(N3)C2=O)C(C)C)CC1 (atropisomer, axis not shown) [Example A621] | < 10 nM |
| CCn1c(-c2cccnc2[C@H](C)OC)c2c3cc(ccc31)-c1csc(n1)C[C@H](NC(=O)[C@H](C(C)C)N(C)C(=O)N1C[C@H]3CN(C(=O)C#CC(C)(C)N(C)C)CC[C@H]31)C(=O)N1CCC[C@H](N1)C(=O)OCC(C)(C)C2 (atropisomer, axis not shown) [Example A624] | < 10 nM |
| CCn1c(-c2cccnc2[C@H](C)OC)c2c3cc(ccc31)-c1csc(n1)C[C@H](NC(=O)[C@H](F)COC1CN(C(=O)C#CC(C)(C)N(C)C)C1)C(=O)N1CCC[C@H](N1)C(=O)OCC(C)(C)C2 (atropisomer, axis not shown) [Example A627] | < 10 nM |
| C=C(C)C(=O)N1CC2(CCN(C(=O)N(C)[C@H](C(=O)N[C@H]3Cc4nc(cs4)-c4ccc5c(c4)c(c(-c4cccnc4[C@H](C)OC)n5CC)CC(C)(C)COC(=O)[C@@H]4CCCN(N4)C3=O)C(C)C)CC2)C1 (atropisomer, axis not shown) [Example A651] | 10 to 100 nM |
| C=CC(=O)N(C)C[C@H]1CCN(C(=O)N(C)[C@H](C(=O)N[C@H]2Cc3nc(cs3)-c3ccc4c(c3)c(c(-c3cccnc3[C@H](C)OC)n4CC)CC(C)(C)COC(=O)[C@@H]3CCCN(N3)C2=O)C(C)C)C1 (atropisomer, axis not shown) [Example A653] | 10 to 100 nM |
| C=CC(=O)N(C)C[C@@H]1CCN(C(=O)N(C)[C@H](C(=O)N[C@H]2Cc3nc(cs3)-c3ccc4c(c3)c(c(-c3cccnc3[C@H](C)OC)n4CC)CC(C)(C)COC(=O)[C@@H]3CCCN(N3)C2=O)C(C)C)C1 (atropisomer, axis not shown) [Example A654] | 10 to 100 nM |
| CCn1c(-c2cccnc2[C@H](C)OC)c2c3cc(ccc31)-c1cccc(c1)C[C@H](NC(=O)[C@@H](COC1CN(C(=O)C#CC(C)(C)N(C)CCO)C1)C(C)C)C(=O)N1CCC[C@H](N1)C(=O)OCC(C)(C)C2 (atropisomer, axis not shown) [Example A657] | < 10 nM |
| CCn1c(-c2cccnc2[C@H](C)OC)c2c3cc(ccc31)-c1csc(n1)C[C@H](NC(=O)[C@@H](COC1CN(C(=O)C#CC(C)(C)N(C)C)C1)OC)C(=O)N1CCC[C@H](N1)C(=O)OCC(C)(C)C2 (atropisomer, axis not shown) [Example A660] | < 10 nM |
| C=CC(=O)N1CC[C@@]2(CCN2C(=O)N(C)[C@H](C(=O)N[C@H]2Cc3nc(cs3)-c3ccc4c(c3)c(c(-c3cccnc3[C@H](C)OC)n4CC)CC(C)(C)COC(=O)[C@@H]3CCCN(N3)C2=O)C(C)C)C1 (atropisomer, axis not shown) [Example A661] | < 10 nM |
